Test results: the supplement of paper PMC10307832

Experiments:
Assay in all cases: relative viability (nuclei count vs DMSO), 5 days (fraction); higher = more cells survive
Elesclomol + Crizotinib = compound: CN(NC(=O)CC(=O)NN(C)C(=S)c1ccccc1)C(=S)c1ccccc1 [Elesclomol] + C[C@@H](Oc1cc(-c2cnn(C3CCNCC3)c2)cnc1N)c1c(Cl)ccc(F)c1Cl [Crizotinib] (partner 1 µM)
In short: (§1)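 Relative viability equals treated-well nuclei counts divided by vehicle-well nuclei counts. Counts came from 4× images of lung cancer cell lines grown in 1536-well plates for 5 days after pin-tool dosing on the day after seeding. Dosing used one drug alone or a fixed anchor-drug dose plus five library-drug doses (not always all listed) in √10 steps, and values are medians of duplicate plates.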

Elesclomol + Luminespib = compound: CN(NC(=O)CC(=O)NN(C)C(=S)c1ccccc1)C(=S)c1ccccc1 [Elesclomol] + CCNC(=O)c1noc(-c2cc(C(C)C)c(O)cc2O)c1-c1ccc(CN2CCOCC2)cc1 [Luminespib] (partner 0.01 µM)
In short: as §1

Elesclomol + Vorinostat = compound: CN(NC(=O)CC(=O)NN(C)C(=S)c1ccccc1)C(=S)c1ccccc1 [Elesclomol] + O=C(CCCCCCC(=O)Nc1ccccc1)NO [Vorinostat] (partner 1 µM)
In short: as §1

Elesclomol = compound: CN(NC(=O)CC(=O)NN(C)C(=S)c1ccccc1)C(=S)c1ccccc1 [Elesclomol]
In short: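 Nuclei counted with MetaXpress define viability as the ratio of treated to vehicle wells, given as a median across plates. The lung cancer cell lines were in 1536-well plates, pinned with five √10-spaced library-drug doses and imaged at 4× after 5 days and Hoechst staining. Plates passed with control CV below 25% and at least one doubling.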

Elesclomol + Linsitinib = compound: CN(NC(=O)CC(=O)NN(C)C(=S)c1ccccc1)C(=S)c1ccccc1 [Elesclomol] + C[C@]1(O)C[C@@H](c2nc(-c3ccc4ccc(-c5ccccc5)nc4c3)c3c(N)nccn32)C1 [Linsitinib] (partner 1 µM)
In short: as §1

Cell Line: ChaGo-K-1
- relative viability (Elesclomol + Crizotinib; first compound 0.003162 µM): 0.596
- relative viability (Elesclomol + Crizotinib; first compound 0.01 µM): 0.376
- relative viability (Elesclomol + Crizotinib; first compound 0.03162 µM): 0.288
- relative viability (Elesclomol + Crizotinib; first compound 0.1 µM): 0.258
- relative viability (Elesclomol + Luminespib; first compound 0.003162 µM): 0.524
- relative viability (Elesclomol + Luminespib; first compound 0.01 µM): 0.541
- relative viability (Elesclomol + Luminespib; first compound 0.03162 µM): 0.184
- relative viability (Elesclomol + Luminespib; first compound 0.1 µM): 0.128
- relative viability (Elesclomol + Vorinostat; first compound 0.003162 µM): 0.791
- relative viability (Elesclomol + Vorinostat; first compound 0.01 µM): 0.638
- relative viability (Elesclomol + Vorinostat; first compound 0.03162 µM): 0.338
- relative viability (Elesclomol + Vorinostat; first compound 0.1 µM): 0.146
- relative viability (Elesclomol; 0.003162 µM): 0.947
- relative viability (Elesclomol; 0.01 µM): 0.952
- relative viability (Elesclomol; 0.03162 µM): 0.663
- relative viability (Elesclomol; 0.1 µM): 0.199

Cell Line: EKVX
- relative viability (Elesclomol + Crizotinib; first compound 0.003162 µM): 0.741
- relative viability (Elesclomol + Crizotinib; first compound 0.01 µM): 0.486
- relative viability (Elesclomol + Crizotinib; first compound 0.03162 µM): 0.376
- relative viability (Elesclomol + Crizotinib; first compound 0.1 µM): 0.21
- relative viability (Elesclomol + Linsitinib; first compound 0.003162 µM): 0.915
- relative viability (Elesclomol + Linsitinib; first compound 0.01 µM): 0.6
- relative viability (Elesclomol + Linsitinib; first compound 0.03162 µM): 0.239
- relative viability (Elesclomol + Linsitinib; first compound 0.1 µM): 0.17
- relative viability (Elesclomol + Luminespib; first compound 0.003162 µM): 0.831
- relative viability (Elesclomol + Luminespib; first compound 0.01 µM): 0.539
- relative viability (Elesclomol + Luminespib; first compound 0.03162 µM): 0.169
- relative viability (Elesclomol + Luminespib; first compound 0.1 µM): 0.145
- relative viability (Elesclomol + Vorinostat; first compound 0.003162 µM): 0.659
- relative viability (Elesclomol + Vorinostat; first compound 0.01 µM): 0.336
- relative viability (Elesclomol + Vorinostat; first compound 0.03162 µM): 0.241
- relative viability (Elesclomol + Vorinostat; first compound 0.1 µM): 0.253
- relative viability (Elesclomol; 0.003162 µM): 0.912
- relative viability (Elesclomol; 0.01 µM): 0.662
- relative viability (Elesclomol; 0.03162 µM): 0.379
- relative viability (Elesclomol; 0.1 µM): 0.203

Cell Line: EMC-BAC-2
- relative viability (Elesclomol + Crizotinib; first compound 0.003162 µM): 0.762
- relative viability (Elesclomol + Crizotinib; first compound 0.01 µM): 0.718
- relative viability (Elesclomol + Crizotinib; first compound 0.03162 µM): 0.698
- relative viability (Elesclomol + Crizotinib; first compound 0.1 µM): 0.406
- relative viability (Elesclomol + Linsitinib; first compound 0.003162 µM): 0.851
- relative viability (Elesclomol + Linsitinib; first compound 0.01 µM): 0.807
- relative viability (Elesclomol + Linsitinib; first compound 0.03162 µM): 0.699
- relative viability (Elesclomol + Linsitinib; first compound 0.1 µM): 0.455
- relative viability (Elesclomol + Luminespib; first compound 0.003162 µM): 1.23
- relative viability (Elesclomol + Luminespib; first compound 0.01 µM): 1.04
- relative viability (Elesclomol + Luminespib; first compound 0.03162 µM): 0.535
- relative viability (Elesclomol + Luminespib; first compound 0.1 µM): 0.383
- relative viability (Elesclomol + Vorinostat; first compound 0.003162 µM): 0.486
- relative viability (Elesclomol + Vorinostat; first compound 0.01 µM): 0.231
- relative viability (Elesclomol + Vorinostat; first compound 0.1 µM): 0.22
- relative viability (Elesclomol; 0.003162 µM): 1.05
- relative viability (Elesclomol; 0.01 µM): 0.548
- relative viability (Elesclomol; 0.03162 µM): 0.602
- relative viability (Elesclomol; 0.1 µM): 0.557

Cell Line: EPLC-272H
- relative viability (Elesclomol + Crizotinib; first compound 0.003162 µM): 1.03
- relative viability (Elesclomol + Crizotinib; first compound 0.03162 µM): 0.837
- relative viability (Elesclomol + Crizotinib; first compound 0.1 µM): 0.135
- relative viability (Elesclomol + Linsitinib; first compound 0.003162 µM): 1.25
- relative viability (Elesclomol + Linsitinib; first compound 0.03162 µM): 1.05
- relative viability (Elesclomol + Linsitinib; first compound 0.1 µM): 0.26
- relative viability (Elesclomol + Luminespib; first compound 0.003162 µM): 0.333
- relative viability (Elesclomol + Luminespib; first compound 0.03162 µM): 0.576
- relative viability (Elesclomol + Luminespib; first compound 0.1 µM): 0.125
- relative viability (Elesclomol + Vorinostat; first compound 0.003162 µM): 0.178
- relative viability (Elesclomol + Vorinostat; first compound 0.01 µM): 0.0788
- relative viability (Elesclomol + Vorinostat; first compound 0.03162 µM): 0.133
- relative viability (Elesclomol + Vorinostat; first compound 0.1 µM): 0.129
- relative viability (Elesclomol; 0.003162 µM): 0.876
- relative viability (Elesclomol; 0.01 µM): 0.514
- relative viability (Elesclomol; 0.03162 µM): 0.534
- relative viability (Elesclomol; 0.1 µM): 0.128

Cell Line: H3255
- relative viability (Elesclomol + Crizotinib; first compound 0.003162 µM): 0.967
- relative viability (Elesclomol + Crizotinib; first compound 0.01 µM): 0.459
- relative viability (Elesclomol + Crizotinib; first compound 0.03162 µM): 0.377
- relative viability (Elesclomol + Crizotinib; first compound 0.1 µM): 0.409
- relative viability (Elesclomol + Linsitinib; first compound 0.003162 µM): 1.01
- relative viability (Elesclomol + Linsitinib; first compound 0.01 µM): 0.702
- relative viability (Elesclomol + Linsitinib; first compound 0.03162 µM): 0.428
- relative viability (Elesclomol + Linsitinib; first compound 0.1 µM): 0.432
- relative viability (Elesclomol + Luminespib; first compound 0.003162 µM): 0.883
- relative viability (Elesclomol + Luminespib; first compound 0.01 µM): 0.875
- relative viability (Elesclomol + Luminespib; first compound 0.03162 µM): 0.547
- relative viability (Elesclomol + Luminespib; first compound 0.1 µM): 0.395
- relative viability (Elesclomol + Vorinostat; first compound 0.003162 µM): 0.843
- relative viability (Elesclomol + Vorinostat; first compound 0.01 µM): 0.62
- relative viability (Elesclomol + Vorinostat; first compound 0.03162 µM): 0.426
- relative viability (Elesclomol + Vorinostat; first compound 0.1 µM): 0.44
- relative viability (Elesclomol; 0.003162 µM): 0.879
- relative viability (Elesclomol; 0.01 µM): 0.785
- relative viability (Elesclomol; 0.03162 µM): 0.566
- relative viability (Elesclomol; 0.1 µM): 0.442

Cell Line: HARA
- relative viability (Elesclomol + Crizotinib; first compound 0.003162 µM): 1.06
- relative viability (Elesclomol + Crizotinib; first compound 0.01 µM): 0.799
- relative viability (Elesclomol + Crizotinib; first compound 0.03162 µM): 0.987
- relative viability (Elesclomol + Crizotinib; first compound 0.1 µM): 0.368
- relative viability (Elesclomol + Linsitinib; first compound 0.003162 µM): 1.11
- relative viability (Elesclomol + Linsitinib; first compound 0.01 µM): 0.927
- relative viability (Elesclomol + Linsitinib; first compound 0.03162 µM): 0.872
- relative viability (Elesclomol + Linsitinib; first compound 0.1 µM): 0.21
- relative viability (Elesclomol + Luminespib; first compound 0.003162 µM): 0.545
- relative viability (Elesclomol + Luminespib; first compound 0.01 µM): 0.669
- relative viability (Elesclomol + Luminespib; first compound 0.03162 µM): 0.1
- relative viability (Elesclomol + Luminespib; first compound 0.1 µM): 0.0826
- relative viability (Elesclomol + Vorinostat; first compound 0.003162 µM): 0.607
- relative viability (Elesclomol + Vorinostat; first compound 0.01 µM): 0.542
- relative viability (Elesclomol + Vorinostat; first compound 0.03162 µM): 0.616
- relative viability (Elesclomol + Vorinostat; first compound 0.1 µM): 0.163
- relative viability (Elesclomol; 0.003162 µM): 0.883
- relative viability (Elesclomol; 0.01 µM): 0.879
- relative viability (Elesclomol; 0.03162 µM): 0.919
- relative viability (Elesclomol; 0.1 µM): 0.293

Cell Line: HCC-15
- relative viability (Elesclomol + Crizotinib; first compound 0.003162 µM): 0.753
- relative viability (Elesclomol + Crizotinib; first compound 0.01 µM): 0.667
- relative viability (Elesclomol + Crizotinib; first compound 0.03162 µM): 0.556
- relative viability (Elesclomol + Crizotinib; first compound 0.1 µM): 0.259
- relative viability (Elesclomol + Linsitinib; first compound 0.003162 µM): 0.882
- relative viability (Elesclomol + Linsitinib; first compound 0.01 µM): 0.735
- relative viability (Elesclomol + Linsitinib; first compound 0.03162 µM): 0.61
- relative viability (Elesclomol + Linsitinib; first compound 0.1 µM): 0.38
- relative viability (Elesclomol + Luminespib; first compound 0.003162 µM): 0.27
- relative viability (Elesclomol + Luminespib; first compound 0.01 µM): 0.194
- relative viability (Elesclomol + Luminespib; first compound 0.03162 µM): 0.11
- relative viability (Elesclomol + Luminespib; first compound 0.1 µM): 0.0457
- relative viability (Elesclomol + Vorinostat; first compound 0.003162 µM): 0.81
- relative viability (Elesclomol + Vorinostat; first compound 0.01 µM): 0.776
- relative viability (Elesclomol + Vorinostat; first compound 0.03162 µM): 0.645
- relative viability (Elesclomol + Vorinostat; first compound 0.1 µM): 0.265
- relative viability (Elesclomol; 0.003162 µM): 0.964
- relative viability (Elesclomol; 0.01 µM): 0.828
- relative viability (Elesclomol; 0.03162 µM): 0.626
- relative viability (Elesclomol; 0.1 µM): 0.231

Cell Line: HCC-44
- relative viability (Elesclomol + Crizotinib; first compound 0.003162 µM): 0.767
- relative viability (Elesclomol + Crizotinib; first compound 0.01 µM): 0.73
- relative viability (Elesclomol + Crizotinib; first compound 0.03162 µM): 0.808
- relative viability (Elesclomol + Crizotinib; first compound 0.1 µM): 0.457
- relative viability (Elesclomol + Linsitinib; first compound 0.003162 µM): 0.678
- relative viability (Elesclomol + Linsitinib; first compound 0.01 µM): 0.604
- relative viability (Elesclomol + Linsitinib; first compound 0.03162 µM): 0.623
- relative viability (Elesclomol + Linsitinib; first compound 0.1 µM): 0.345
- relative viability (Elesclomol + Luminespib; first compound 0.003162 µM): 1.01
- relative viability (Elesclomol + Luminespib; first compound 0.01 µM): 0.86
- relative viability (Elesclomol + Luminespib; first compound 0.03162 µM): 0.213
- relative viability (Elesclomol + Luminespib; first compound 0.1 µM): 0.178
- relative viability (Elesclomol + Vorinostat; first compound 0.003162 µM): 1.09
- relative viability (Elesclomol + Vorinostat; first compound 0.01 µM): 1.16
- relative viability (Elesclomol + Vorinostat; first compound 0.03162 µM): 1.16
- relative viability (Elesclomol + Vorinostat; first compound 0.1 µM): 1.08
- relative viability (Elesclomol; 0.003162 µM): 0.968
- relative viability (Elesclomol; 0.01 µM): 0.935
- relative viability (Elesclomol; 0.03162 µM): 0.831
- relative viability (Elesclomol; 0.1 µM): 0.764
